According to article PMC10821124, “Dimeric 3,5-Bis(benzylidene)-4-piperidones: Tumor-Selective Cytotoxicity and Structure-Activity Relationships” (Medicines, 2024):
Entries after “also recorded” stand apart in the source; their conditions may differ.

Columns and labels:
[1] = test system: human oral squamous cell carcinoma HSC-3 cells; test: Cytotoxicity, MTT method, HSC-3 cells; type: cell-based; settings: for CC50: Homo sapiens, HSC-3, 48 h, MTT, mean ± SD, read-out: CC50 HSC-3; for SI (selectivity index) HSC-3: average CC50 non-malignant cells / CC50 HSC-3
Description: (§1) Human promyelocytic leukemia [HL-60 (RCB3683)] (purchased from Riken Cell Bank, Tsukuba, Japan) was cultured at 37 °C in RPMI1640 medium (Fujifilm Wako Pure Chemical Co., Osaka, Japan) supplemented with 10% heat (56 °C, 30 min) inactivated FBS (Sigma-Aldrich Inc. St. Louis, MO, USA), 100 U/mL penicillin G, and 100 µg/mL streptomycin sulfate in a humidified 5% CO2 incubator (MCO-170 AICUVD-P, Panasonic Healthcare Co., Ltd., Gunma, Japan). Human oral squamous cell carcinoma (OSCC) cell lines derived from tongue [HSC-2 (RCB1945), HSC-3 (RCB1975), HSC-4 (RCB1902)] (Riken Cell Bank), and human normal oral cells (gingival fibroblasts, HGF; pulp cell, HPC; periodontal ligament fibroblast, HPLF), established from the first premolar extracted tooth in the lower jaw and periodontal tissues of a child, according to the guidelines of Meikai University Ethic Committee (No. A0808), were cultured in DMEM medium (Fujifilm Wako Pure Chemical Co.) supplemented with 10% FBS and antibiotics. The compounds in Series 2–4 were evaluated against HL-60, HSC-2, HSC-3, HSC-4, HGF, HPC, and HPLF cells based on a literature procedure, as described previously. In brief, near confluent cells were incubated in triplicate for 48 h at 37 °C with different concentrations ([…], 6.3, 12.5, 25, 50, 100 µM) of the compounds; then, viable cell numbers were measured using the MTT method. From the dose–response curve, a 50% cytotoxic concentration (CC50) was determined. All samples were dissolved in dimethylsulfoxide (DMSO). The toxicity of DMSO alone was calculated and subtracted. The CC50 values were determined from dose–response curves.

[2] = test system: human promyelocytic leukemia HL-60 cells; test: Cytotoxicity, MTT method, HL-60 cells; type: cell-based; settings: for CC50: Homo sapiens, HL-60, 48 h, MTT, mean ± SD, read-out: CC50 HL-60; for SI (selectivity index) HL-60: average CC50 non-malignant cells / CC50 HL-60
Description: as §1

[3] = Cytotoxicity, average over the three human normal cells; type: cell-based; settings: human, average of HGF, HPC, HPLF; read-out: AVE CC50, human normal cells
Description: as §1

[4] = test system: human normal cells HGF, HPC, HPLF; test: as above; type: cell-based; settings: average of HGF, read-out: AVE CC50, human normal cells
Description: as §1

[5] = Cytotoxicity, MTT method, HPC non-malignant cells; type: cell-based, human; settings: human, pulp cells (HPC), non-malignant, mean ± SD
Description: as §1

[6] = Cytotoxicity, MTT method, HPLF non-malignant cells; type: cell-based, human; settings: human, periodontal ligament fibroblasts (HPLF), non-malignant, mean ± SD
Description: as §1

[7] = test system: human tumour cell lines HL-60, HSC-2, HSC-3, HSC-4; test: Cytotoxicity, average over the four human tumour cell lines; type: cell-based; settings: for CC50: Homo sapiens, average of HL-60, HSC-2, HSC-3, HSC-4, read-out: AVE. CC50, human tumour cell lines; for AVE SI: average of the four SI values
Description: as §1

[8] = Cytotoxicity, MTT method, HGF non-malignant cells; type: cell-based, human; settings: human, gingival fibroblasts (HGF), non-malignant, mean ± SD
Description: as §1

[9] = test system: human oral squamous cell carcinoma HSC-2 cells; test: Cytotoxicity, MTT method, HSC-2 cells; type: cell-based; settings: for CC50: Homo sapiens, HSC-2, 48 h, MTT, mean ± SD, read-out: CC50 HSC-2; for SI (selectivity index) HSC-2: average CC50 non-malignant cells / CC50 HSC-2
Description: as §1

[10] = test system: human oral squamous cell carcinoma HSC-4 cells; test: Cytotoxicity, MTT method, HSC-4 cells; type: cell-based; settings: for CC50: Homo sapiens, HSC-4, 48 h, MTT, mean ± SD, read-out: CC50 HSC-4; for SI (selectivity index) HSC-4: average CC50 non-malignant cells / CC50 HSC-4
Description: as §1

[11] = test system: HSC-2 cells; test: Cell cycle analysis of HSC-2 cells; type: cell-based, human; settings: 0.5 µM, 24 h
Description: The effect of 3b (0.5 µM) and 3c (0.5 µM) on the phase distribution of HSC-2 cells after 24 h of incubation was determined using the protocol of a manufacturer (BD Pharmingen, BD BioSciences, San Jose, CA, USA). In brief, treated and untreated cells were suspended at a density of ~1 × 10^6 cells/mL in cooled phosphate-buffered saline (PBS) without calcium and magnesium ions and fixed with 70% ethanol overnight at −20 °C. The cells were washed with cooled PBS and re-suspended in a propidium iodide/RNase staining buffer in the dark at room temperature for 0.25 h. Both acquisition and analysis were performed using EPICS ALTRA (Beckman Coulter, Brea, CA, USA) and EXPO 32 software.

[12] = test system: PARP1; test: PARP1 cleavage, western blot in HSC-2 cells; type: cell-based, human; settings: 0.5 µM, 24 h
Description: (§2) Antibodies against cleaved PARP1, bim, bax, puma, and bak were obtained from Cell Signaling Technology (Beverley, MA, USA) while the anti-actin antibody was purchased from Santa Cruz Biotechnology (Santa Cruz, CA, USA).
(§3) The HSC-2 cells were cultured for 24 h and, then, treated with 0.5 µM of 3b or 3c for 24 h. The cells were scraped and collected in lysis buffer (purchased from Cell Signaling Technology), which contained 1 mM of phenylmethanesulfonyl fluoride and one tablet of protease inhibitor cocktail (Complete, EDTA-free; Roche Diagnostics, Mannheim, Germany). The proteins were subjected to 8% SDS-polyacrylamide gel electrophoresis and, then, transferred to a polyvinylidene difluoride membrane saturated with 5% nonfat dry milk. The membranes were incubated with rabbit monoclonal anti-cleaved PARP (Cell Signaling Technology, Beverly, MA, USA; #9541, 1:1000), or beta-actin antibody (Sigma-Aldrich, St Louis, MO, USA; A5441, 1:10,000) for 1 h at room temperature. The membranes were washed with Tris-buffered saline containing 0.1% Tween 80. And, the secondary antibodies were horseradish peroxidase-conjugated goat antimouse or antirabbit, which reacted with the chemoluminescent substrate system and were exposed to X-ray films.

[13] = test system: bim, bax, puma, and bak; test: Pro-apoptotic proteins bim, bax, puma, bak in HSC-2 cells; type: cell-based, human; settings: 24 h, data not shown
Description: as §2, §3

[14] = test system: HCT116 cells; test: Reactive oxygen species determination in HCT116 cells; type: cell-based, human; settings: for Generation of reactive oxygen species (ROS): 48 h, dichlorofluorescein fluorescence
Description: The determination of the effects of 3b, 3c, and 5-FU on the generation of reactive oxygen species in HCT 116 cells was accomplished using a literature procedure. In brief, the cells were incubated at 37 °C in an atmosphere of 5% carbon dioxide for 24 h. Subsequently, solutions of the compounds in DMSO were added to the cells, which were incubated for 48 h. After 2′,7′-dichlorofluorescein was added to the cells, incubation continued for another 0.5 h and the fluorescence of the cells was measured spectrophotometrically (excitation wavelength 485 nm; emission wavelength, 530 nm).

[15] = test system: caspases-3 and -7; test: Caspase-Glo 3/7 assay in HSC-2 cells; type: cell-based, human; settings: 0.5 µM, 24 h
Description: Both 3b (0.5 µM) and 3c (0.5 µM) were examined for their ability to activate caspases-3 and -7 in HSC cells. This determination was accomplished using the Caspase-Glo 3/7 assay (Promega Corporation, Madison, WI, USA). In brief, this assay uses a tetrapeptide sequence DEVD, which is optimized for caspase and luciferase activities. The cell lysate was incubated with the Caspase-Glo reagent (buffer and substrate) for 1 h and the luminescence was measured. The resultant luminescent signal produced by luciferase was confirmed to be proportional to the amount of caspase-3 and -7 activity.

[16] = test system: HCT116 cells; test: Mitochondrial membrane potential determination in HCT116 cells; type: cell-based, human; settings: 48 h, tetramethylrhodamine ethyl ester
Description: The determination of the IC50 values of 3b, 3c, and 5-FU on the mitochondrial membrane potential in HCT 116 cells was undertaken using a literature procedure. In brief, the cells were incubated at 37 °C in an atmosphere of 5% carbon dioxide for 24 h. The compounds were dissolved in DMSO, added to the cells, and incubated for 48 h. Then, […], and 2,4-dinitrophenol (DNP) were added to the cells, which were incubated for 0.5 h. After the addition of tetramethylrhodamine ethyl ester, the fluorescence of the cells was determined using a plate reader.

SMILES	CC50 [1] [µM]	SI (selectivity index) HSC-3 [1]	CC50 [2] [µM]	SI (selectivity index) HL-60 [2]	CC50 at 48 h [3] [µM]	CC50 [4] [µM]	CC50 at 48 h [5] [µM]	CC50 at 48 h [6] [µM]	CC50 [7] [µM]	AVE SI [7]	CC50 at 48 h [8] [µM]	CC50 [9] [µM]	SI (selectivity index) HSC-2 [9]	CC50 [10] [µM]	SI (selectivity index) HSC-4 [10]	Cell cycle effect [11]	Cleavage of PARP1 [12]	Effect on pro-apoptotic proteins bim, bax, puma, bak [13]	Generation of reactive oxygen species (ROS) [14]	Induction of caspases-3 and -7 [15]	other results
O=C1/C(=C/c2ccc(Cl)cc2)CN(C(=O)C(=O)N2C/C(=C\c3ccc(Cl)cc3)C(=O)/C(=C/c3ccc(Cl)cc3)C2)C/C1=C\c1ccc(Cl)cc1 [Compound 2c]	11 ± 1.1	6.76	4.4 ± 0.17	16.9	> 50	74.3	78 ± 37	89 ± 9.3	6.45	13.7	56 ± 6.7	3.7 ± 0.6	20.1	6.7 ± 3	11.1	–	–	–	–	–	–
COc1ccc(/C=C2\CN(C(=O)C(=O)N3C/C(=C\c4ccc(OC)cc4)C(=O)/C(=C/c4ccc(OC)cc4)C3)C/C(=C\c3ccc(OC)cc3)C2=O)cc1 [Compound 2h]	9.2 ± 4.7	>8.88	15 ± 0.42	>5.45	> 50	> 81.7	63 ± 8	> 100	10.4	>8.34	82 ± 14	7.8 ± 1.3	>10.5	9.6 ± 0.17	>8.51	–	–	–	–	–	–
CN(C)c1ccc(/C=C2\CN(C(=O)C(=O)N3C/C(=C\c4ccc(N(C)C)cc4)C(=O)/C(=C/c4ccc(N(C)C)cc4)C3)C/C(=C\c3ccc(N(C)C)cc3)C2=O)cc1 [Compound 2i]	> 100	~1.00	> 100	~1.00	> 50	> 100	> 100	> 100	> 100	~1.00	> 100	> 100	~1.00	> 100	~1.00	–	–	–	–	–	–
O=C1/C(=C/c2ccc(F)cc2)CN(C(=O)CC(=O)N2C/C(=C\c3ccc(F)cc3)C(=O)/C(=C/c3ccc(F)cc3)C2)C/C1=C\c1ccc(F)cc1 [Compound 3b]	0.046 ± 0.011	92.0	0.028 ± 0.001	151	4.23	–	3.2 ± 1.1	5.7 ± 0.67	0.04	133	3.8 ± 0.71	0.041 ± 0.004	103	0.023 ± 0.003	184	G2M arrest in the cell cycle; also recorded: causes a G2/M arrest	causing the cleavage of PARP; also recorded: leads to the cleavage of PARP1	no changes in the concentrations of these proteins were observed	cause an increase in the ROS concentrations	induced caspases-3 and -7	CC50 values in all four bioassays (range in words) ([7]; HL-60, HSC-2, HSC-3, HSC-4): double-digit nanomolar range; ROS generation, potency relative to 3c [14]: approximately twice the potency of 3c; Effect on mitochondrial membrane potential (MMP) [16]: huge effect on lowering the MMP
O=C1/C(=C/c2ccc(Cl)cc2)CN(C(=O)CC(=O)N2C/C(=C\c3ccc(Cl)cc3)C(=O)/C(=C/c3ccc(Cl)cc3)C2)C/C1=C\c1ccc(Cl)cc1 [Compound 3c]	13 ± 2.2	3.18	5 ± 0.76	8.26	41.3	–	38 ± 8.7	45 ± 11	7.25	6.62	41 ± 2.5	5.5 ± 0.65	7.51	5.5 ± 0.96	7.51	does not exert these effects	does not exert these effects	no changes in the concentrations of these proteins were observed	cause an increase in the ROS concentrations	does not exert these effects	Effect on mitochondrial membrane potential (MMP) [16]: no effect at the concentrations utilized
O=C1/C(=C/c2ccc(Cl)c(Cl)c2)CN(C(=O)CC(=O)N2C/C(=C\c3ccc(Cl)c(Cl)c3)C(=O)/C(=C/c3ccc(Cl)c(Cl)c3)C2)C/C1=C\c1ccc(Cl)c(Cl)c1 [Compound 3d]	76 ± 13	>1.32	65 ± 6.1	>1.54	> 50	> 100	> 100	> 100	73.3	>1.38	> 100	73 ± 3.5	>1.37	79 ± 5.5	>1.27	–	–	–	–	–	–
